{"source": "paper PMC8797470", "about": "“Disruption of the pentraxin 3/CD44 interaction as an efficient therapy for triple‐negative breast cancers” (Clinical and Translational Medicine, 2022)", "key": {"[1]": {"tested_on": "RANKL, MMP2, NANOG and TWIST2 transcription in MDA-MB-231 cells", "assay": "Real-time quantitative PCR of PTX3-induced genes", "format": "cell-based, human", "settings": "wortmannin 100 nM, BAY 11-7085 2 μM, PD98059 10 μM; pre-treated 1 h, then PTX3 24 h", "source_text": "TRIsure RNA extraction reagent (Invitrogen) extracted total RNA. SuperScript™ III Reverse Transcriptase (Invitrogen) was used to synthesis cDNA. Next, SensiFAST™ SYBR (BIOLINE) was applied to perform real‐time quantitative PCR (Q‐PCR) assay. CFX connect Real‐Time PCR System (BIO‐RAD) executed real‐time fluorescence monitoring and the melting curve analysis according to the manufacturer's recommendations. The following pairs of specific primers—human CEBPD (F): 5′‐[…]‐3′ and CEBPD (R): 5′‐[…]‐3′, human PTX3 (F): 5′‐ […]‐3′ and PTX3 (R): 5′‐ […]‐3′, human MMP2 (F): 5′‐ […]‐3′ and MMP2 (R): 5′‐ […]‐3′, human RANKL (F): 5′‐ AGAGC GCAGATGGATCCTAA‐3′ and RANKL (R): 5′‐ TTCCTTTTGCACAGC TCCTT‐3′, human TWIST2 (F): 5′‐[…]‐3′ and TWIST2 (R): 5′‐[…]‐3′, human NANOG (F): 5′‐[…]‐3′ and NANOG (R): 5′‐ […]‐3′, human GAPDH (F): 5′‐ […]‐3′ and GAPDH (R): 5′‐ […]‐3′."}, "PTX3": {"target": "PTX3", "settings": "read-out: KD for PTX3 binding; cited from earlier work", "source_text": "However, knockdown of CD44 enhanced both JNK and p38 activity, implying that blockade of the PTX3/CD44 interaction positively compensates for JNK and p38 activity."}, "CD44 [2]": {"target": "T1, CD44 (Homo sapiens, UniProt P16070)", "assay": "Ligand binding ELISA on immobilised CD44", "design": "purchased Sino Biological Inc. 12211-H08H", "settings": "wells coated with 10 μg/ml CD44, 2 h, OD 450 nm; for binding to immobilised CD44: HRP-conjugated recombinant proteins; for CD44 binding activity of peptides: biotinylated peptides, modified peptides compared with parental peptides", "experimental": "Plate wells (9018; Corning Costar) were coated with 10 μg/ml of CD44 (12211‐H08H; Sino Biological Inc.) in PBS (pH 7.2) and then blocking for 1 h with the blocking buffer including 3% milk in PBS. For the stability binding experiments, the PTX3‐devired biotinylated peptides were pre‐incubated in serum for 1, 2, 4 or 6 h. For the binding experiments, the horseradish peroxidase (HRP)‐conjugated recombinant PTX3, PTX3/N, PTX3/C and PTX3NA or PTX3‐devired biotinylated peptides AD9, GR9, P2rdAD9 and P12rdGR9 (32310; LEADGENE) was responded in the well for 2 h. For the peptide of competition experiments, the PTX3‐devired biotinylated peptides RI37 and GI40 were diluted at the indicated concentration in PBS. After 2 h, PBS washed three times and then incubated with 5 μg/ml HRP‐conjugated PTX3 in PBS for 1 h at room temperature (RT). For the antibody competition experiments, Ab‐10 and Ab‐49 were incubated with 5 μg/ml HRP‐conjugated PTX3 in PBS for 2 h at RT. After incubation, the mixtures was responded in the well for 1 h at RT and then PBS washed three times, tetramethyl benzidine (TMB) was used to detect the bound HRP conjugate. After 15 min, the peroxidase reaction was stopped by adding 0.1 M H2SO4. Next, ELISA plate reader was used to detect the optical densities at 450 nm."}, "MDA-MB-231 cells [3]": {"tested_on": "MDA-MB-231 cells", "assay": "Sphere formation assay", "format": "cell-based, human", "settings": "MDA-MB-231 cells treated with the recombinant protein", "experimental": "Note that 5 × 10^3 MDA‐MB‐231 cells were seeded in ultralow attachment plates (Corning) per well. Then, cultured in conditional medium containing the treatment of TGF‐β1, PTX3, PTX3NA, RI37, GI40, IgG1κ, PTX3 Ab‐10 or PTX3 Ab‐49 and the DMEM/F12 (Gibco) added with B27 (Invitrogen), 10 ng/ml bFGF (Peprotech) and 20 ng/ml EGF (Abcam). Number of spheres was calculated by microscope after 2 weeks."}, "CD44 [4]": {"target": "T1, CD44", "assay": "Surface plasmon resonance (BIAcore) of N-terminal CD44 on immobilised full-length PTX3", "format": "binding", "settings": "mean ± standard deviation", "source_text": "The BIAcore 3000 system (GE Healthcare Co. Ltd.) was used to determine the direct protein interaction between the full‐length PTX3 (#1826‐TS; R&D Systems) and the N‐terminal of CD44 (#CD44‐3961H; Creative Biomart). Full‐length PTX3 was immobilised onto a CM5 sensor chip (GE Healthcare Co. Ltd.); the immobilisation level was 4000–6000 response units using amine‐coupling chemistry. Briefly, a mixture of 1‐Ethyl‐3‐(3‐dimethylaminopropyl) carbodiimide hydrochloride (EDC) and N‐hydroxysuccinimide activated the surface of the chip, and then diluted full‐length PTX3 (10 μg/ml in acetate buffer pH 3) was injected into the flow cells for immobilisation. Finally, the remaining activated groups were blocked by ethanolamine. The binding parameters of the experiment were measured over a 1‐min association phase and then followed by a 2‐min dissociation phase at a fluid flow rate of 10 μl/min. Phosphate‐buffered saline (PBS, pH 7.2) was used as the analyte running buffer; 0.05% sodium dodecyl sulphate was used to regenerate the chip surface before the next analyte concentration was applied. The 1:1 Langmuir binding model (BIAevaluation 4.1; GE Healthcare Co. Ltd.) were performed to calculate its corresponding association and dissociation rate constants to determine the affinity."}, "MDA-MB-231 cells [5]": {"tested_on": "MDA-MB-231 cells", "assay": "Transwell migration and Matrigel invasion assays", "format": "cell-based, human", "settings": "treatment in lower well, 18 h", "source_text": "(§1) In migration assay, MDA‐MB‐231 cells seeded in 8.0 μm pore polycarbonate membrane inserts (BD Biosciences) in 24‐well plates. In Matrigel invasion assay, inserts were pre‐coated with an appropriate amount of Matrigel first, and the same number of cells seeded on the Matrigel. After cells adhered on the inserts, serum‐free DMEM medium added in the upper wells. Serum‐free medium containing the treatments of TGF‐β1, PTX3, PTX3NA, PTX3/N, PTX3/C, RI37, GI40, AD9, GR9, IgG1κ, PTX3 Ab‐10 or PTX3 Ab‐49 were then mixed into the lower wells of the 24‐well plates. After incubating for 18 h, cells outside the insert were removed by wiping. The inside the inserts were then stained by 4′,6‐diamidino‐2‐phenylindol (DAPI). Fluorescence microscope was used for counting the total number of migrated cells with 200× magnification. Different from the experimental design for the MDA‐MB‐231 cells, the migrated 4T1‐Luc2 cells in the inside of the insert were detected by luciferase activity."}, "4T1-Luc2 cells": {"tested_on": "4T1-Luc2 cells", "assay": "Transwell migration assay, luciferase read-out", "format": "cell-based, mouse", "settings": "single peptide, with PTX3 treatment", "source_text": "as §1"}, "[6]": {"settings": "BIAcore 3000, full-length PTX3 amine-coupled to CM5 chip, N-terminal CD44 as analyte, PBS pH 7.2, 1:1 Langmuir model"}}, "note": "Ends that are not written are not given here."}
{"compound": "COC[C@H]1OC(=O)c2coc3c2[C@@]1(C)C1=C(C3=O)[C@@H]2CCC(=O)[C@@]2(C)C[C@H]1OC(C)=O", "note": "[wortmannin]", "values": [{"measurement": "PTX3-induced RANKL, TWIST2, MMP2 and NANOG transcription with pathway inhibitors", "setting": "[1]", "result": "significantly hampered"}]}
{"compound": "CC(C)(C)c1ccc(S(=O)(=O)/C=C/C#N)cc1", "note": "[BAY 11‐7085]", "values": [{"measurement": "PTX3-induced RANKL, TWIST2, MMP2 and NANOG transcription with pathway inhibitors", "setting": "[1]", "result": "significantly hampered"}]}
{"compound": "TSG‐6: secretory protein, CEBPD‐responsive gene product that interacts with PTX3", "values": [{"measurement": "Kd", "setting": "PTX3", "result": "0.314 to 0.648", "unit": "µM"}]}
{"compound": "pentraxin 3 [PTX3]", "values": [{"measurement": "binding to immobilised CD44", "setting": "CD44 [2]", "result": "could bind"}, {"measurement": "sphere formation, protein alone", "setting": "MDA-MB-231 cells [3]", "result": "promoted"}, {"measurement": "association rate constant, K on", "setting": "CD44 [4]; [6]", "result": "1.30 ± 0.32 × 10^2 M^–1 s^–1"}, {"measurement": "dissociation rate constant, K off", "setting": "CD44 [4]; [6]", "result": "2.43 ± 2.35 × 10^–6 s^–1"}, {"measurement": "Kd", "setting": "CD44 [4]; N-terminal CD44 and full-length PTX3 binding, calculated from the rate constants, read-out: equilibrium dissociation constant, K D", "result": "0.021 ± 0.012", "unit": "µM"}, {"measurement": "migration and invasion, protein alone", "setting": "MDA-MB-231 cells [5]", "result": "enhanced"}]}
{"compound": "PTX3/N: recombinant truncated mutant, N‐terminus of PTX3, amino acids 19–182", "values": [{"measurement": "binding to immobilised CD44", "setting": "CD44 [2]", "result": "not"}]}
{"compound": "COc1cccc(-c2cc(=O)c3ccccc3o2)c1N", "note": "[PD98059]", "values": [{"measurement": "PTX3-induced RANKL, TWIST2, MMP2 and NANOG transcription with pathway inhibitors", "setting": "[1]", "result": "significantly hampered"}]}
{"compound": "AD9: peptide, PTX3 amino acids 209–217 (ACIWVKATD; also: biotin, position not given here)", "values": [{"measurement": "PTX3-induced migration of 4T1-Luc2 cells", "setting": "4T1-Luc2 cells", "result": "efficiently inhibited"}, {"measurement": "CD44 binding activity of peptides", "setting": "CD44 [2]", "result": "significantly high binding activity"}]}
{"compound": "GR9: peptide, PTX3 amino acids 352–360 (GGAESCHIR; also: biotin, position not given here)", "values": [{"measurement": "PTX3-induced migration of 4T1-Luc2 cells", "setting": "4T1-Luc2 cells", "result": "efficiently inhibited"}, {"measurement": "CD44 binding activity of peptides", "setting": "CD44 [2]", "result": "significantly high binding activity"}]}
